In paper PMC12888861, “Antibacterial activity of enmetazobactam against Acinetobacter spp.: a molecular dissection of mechanism of action and resistance determinants” (Antimicrobial Agents and Chemotherapy, 2025):
Read-outs that look alike come from different tables or passages of the source.

Test system: A. non-baumannii isolates (n = 87)
Assay: MIC, broth microdilution (EUCAST), A. non-baumannii isolates
Assay type: cell-based, Acinetobacter spp. (non-baumannii)
Conditions: for MIC: in combinations ETZ fixed at 8 mg/L
Text: The bacterial strains used in this study comprised 208 clinical isolates from the Spanish National Acinetobacter spp. 2020 Multicenter Collection, which was previously characterized in detail by our research group, including whole-genome sequencing, phylogenetics studies, clonal dynamics, and resistance mechanisms ([2], [29]). Additionally, a collection of A. baumannii ATCC 17978 transformants coding the blaOXA-23, blaOXA-24/40, blaOXA-51, blaOXA-58, blaOXA-143, and blaOXA-201 genes, previously constructed and described by our group ([30]), was used to determine the activity of enmetazobactam against strains carrying the main CHDLs of A. baumannii.
The antimicrobial susceptibility of the 208 Acinetobacter spp. isolates was assessed using the broth microdilution method, as described in the European Committee on Antimicrobial Susceptibility Testing (EUCAST) v.15 guidelines (http://www.eucast.org/clinical_breakpoints). […] MICs for enmetazobactam alone were assessed as well. […] Subsequently, MIC testing was also conducted with a collection of A. baumannii ATCC 17978 transformants expressing clinically relevant OXA-like carbapenemase genes.
The A. baumannii ATCC 19606 strain was used as the reference strain in all susceptibility experiments, in duplicate assays. Antibiotics were purchased from Sigma-Aldrich, except enmetazobactam and durlobactam, which were obtained from Advanz Pharma and MedChemExpress, respectively.

[1] = Acinetobacter, A. non-baumannii isolates (n=87), ETZ fixed 8 mg/L in combinations
[2] = […], ETZ fixed 8 mg/L in combinations

CO/N=C(\C(=O)N[C@@H]1C(=O)N2C(C(=O)[O-])=C(C[N+]3(C)CCCC3)CS[C@H]12)c1csc(N)n1 [cefepime]
MIC distribution 0.12: 1.1 | MIC (Acinetobacter baylyi, isolate NO-Ab27, Acinetobacter baylyi, read-out: MIC): 0.5 mg/L | MIC (Acinetobacter beijerinckii, isolate NO-Ab122, Acinetobacter beijerinckii, read-out: MIC): 2 mg/L | MIC (Acinetobacter bereziniae, isolate NO-Ab70, Acinetobacter bereziniae, read-out: MIC): 1 mg/L | MIC (Acinetobacter bereziniae, isolate NO-Ab84, Acinetobacter bereziniae, read-out: MIC): 1 mg/L | MIC (Acinetobacter bereziniae, isolate NO-Ab104, Acinetobacter bereziniae, read-out: MIC): 0.5 mg/L | MIC (Acinetobacter bereziniae, isolate NO-Ab114, Acinetobacter bereziniae, read-out: MIC): 1 mg/L | MIC (Acinetobacter bereziniae, isolate NO-Ab115, Acinetobacter bereziniae, read-out: MIC): 1 mg/L | MIC (Acinetobacter bereziniae, isolate NO-Ab116, Acinetobacter bereziniae, read-out: MIC): 1 mg/L | MIC (Acinetobacter bereziniae, isolate NO-Ab117, Acinetobacter bereziniae, read-out: MIC): 4 mg/L | MIC (Acinetobacter bereziniae, isolate NO-Ab129, Acinetobacter bereziniae, read-out: MIC): 1 mg/L | MIC (Acinetobacter bereziniae, isolate NO-Ab156, Acinetobacter bereziniae, read-out: MIC): 1 mg/L | MIC (Acinetobacter calcoaceticus, isolate NO-Ab85, Acinetobacter calcoaceticus, read-out: MIC): 4 mg/L | MIC (Acinetobacter calcoaceticus, isolate NO-Ab94, Acinetobacter calcoaceticus, read-out: MIC): 2 mg/L | MIC (Acinetobacter calcoaceticus, isolate NO-Ab108, Acinetobacter calcoaceticus, read-out: MIC): 4 mg/L | MIC (Acinetobacter calcoaceticus, isolate NO-Ab161, Acinetobacter calcoaceticus, read-out: MIC): 4 mg/L | MIC (Acinetobacter calcoaceticus, isolate NO-Ab198, Acinetobacter calcoaceticus, read-out: MIC): 4 mg/L | MIC (Acinetobacter calcoaceticus, isolate NO-Ab205, Acinetobacter calcoaceticus, read-out: MIC): 4 mg/L | MIC (Acinetobacter calcoaceticus, isolate NO-Ab211, Acinetobacter calcoaceticus, read-out: MIC): 2 mg/L | MIC (Acinetobacter courvalinii, isolate NO-Ab216, Acinetobacter courvalinii, read-out: MIC): 1 mg/L | MIC (Acinetobacter dispersus, isolate NO-Ab2, Acinetobacter dispersus, read-out: MIC): 0.5 mg/L | MIC (Acinetobacter guillouiae, isolate NO-Ab69, Acinetobacter guillouiae, read-out: MIC): 2 mg/L | MIC (Acinetobacter guillouiae, isolate NO-Ab74, Acinetobacter guillouiae, read-out: MIC): 2 mg/L | MIC (Acinetobacter haemolyticus, isolate NO-Ab92, Acinetobacter haemolyticus): 2 mg/L | MIC (Acinetobacter haemolyticus, isolate NO-Ab177, Acinetobacter haemolyticus): 1 mg/L | MIC (Acinetobacter haemolyticus, isolate NO-Ab217, Acinetobacter haemolyticus): 2 mg/L | MIC (Acinetobacter johnsonii, isolate NO-Ab101, Acinetobacter johnsonii, read-out: MIC): 4 mg/L | MIC (Acinetobacter junii, isolate NO-Ab76, Acinetobacter junii, read-out: MIC): 0.5 mg/L | MIC (Acinetobacter junii, isolate NO-Ab77, Acinetobacter junii, OXA-24/40, read-out: MIC): 1 mg/L | MIC (Acinetobacter lactucae, isolate NO-Ab60, Acinetobacter dijkshoorniae, read-out: MIC): 2 mg/L | MIC (Acinetobacter lactucae, isolate NO-Ab63, Acinetobacter dijkshoorniae, read-out: MIC): 2 mg/L | MIC (Acinetobacter lactucae, isolate NO-Ab65, Acinetobacter dijkshoorniae, read-out: MIC): 2 mg/L | MIC (Acinetobacter lactucae, isolate NO-Ab86, Acinetobacter dijkshoorniae, read-out: MIC): 1 mg/L | MIC (Acinetobacter lactucae, isolate NO-Ab88, Acinetobacter dijkshoorniae, read-out: MIC): 2 mg/L | MIC (Acinetobacter lactucae, isolate NO-Ab91, Acinetobacter dijkshoorniae, read-out: MIC): 2 mg/L | MIC (Acinetobacter lactucae, isolate NO-Ab121, Acinetobacter dijkshoorniae, read-out: MIC): 4 mg/L | MIC (Acinetobacter lactucae, isolate NO-Ab125, Acinetobacter dijkshoorniae, read-out: MIC): 2 mg/L | MIC (Acinetobacter lactucae, isolate NO-Ab160, Acinetobacter dijkshoorniae, read-out: MIC): 0.5 mg/L | MIC (Acinetobacter nosocomialis, isolate NO-Ab43, Acinetobacter nosocomialis, read-out: MIC): 2 mg/L | MIC (Acinetobacter nosocomialis, isolate NO-Ab68, Acinetobacter nosocomialis, OXA-24/40, read-out: MIC): 4 mg/L | MIC (Acinetobacter nosocomialis, isolate NO-Ab98, Acinetobacter nosocomialis, read-out: MIC): 2 mg/L | MIC (Acinetobacter nosocomialis, isolate NO-Ab208, Acinetobacter nosocomialis, read-out: MIC): 2 mg/L | MIC (Acinetobacter pittii, isolate NO-Ab59, Acinetobacter pittii, read-out: MIC): 2 mg/L | MIC (Acinetobacter pittii, isolate NO-Ab66, Acinetobacter pittii, read-out: MIC): 8 mg/L | MIC (Acinetobacter pittii, isolate NO-Ab73, Acinetobacter pittii, read-out: MIC): 2 mg/L | MIC (Acinetobacter pittii, isolate NO-Ab75, Acinetobacter pittii, read-out: MIC): 4 mg/L | MIC (Acinetobacter pittii, isolate NO-Ab78, Acinetobacter pittii, read-out: MIC): 1 mg/L | MIC (Acinetobacter pittii, isolate NO-Ab82, Acinetobacter pittii, read-out: MIC): 1 mg/L | MIC (Acinetobacter pittii, isolate NO-Ab89, Acinetobacter pittii, read-out: MIC): 1 mg/L | MIC (Acinetobacter pittii, isolate NO-Ab90, Acinetobacter pittii, read-out: MIC): 1 mg/L | MIC (Acinetobacter pittii, isolate NO-Ab97, Acinetobacter pittii, read-out: MIC): 4 mg/L | MIC (Acinetobacter pittii, isolate NO-Ab105, Acinetobacter pittii, read-out: MIC): 1 mg/L | MIC (Acinetobacter pittii, isolate NO-Ab106, Acinetobacter pittii, read-out: MIC): 1 mg/L | MIC (Acinetobacter pittii, isolate NO-Ab107, Acinetobacter pittii, read-out: MIC): 0.5 mg/L | MIC (Acinetobacter pittii, isolate NO-Ab111, Acinetobacter pittii, read-out: MIC): 1 mg/L | MIC (Acinetobacter pittii, isolate NO-Ab113, Acinetobacter pittii, read-out: MIC): 2 mg/L | MIC (Acinetobacter pittii, isolate NO-Ab118, Acinetobacter pittii, read-out: MIC): 2 mg/L | MIC (Acinetobacter pittii, isolate NO-Ab135, Acinetobacter pittii, read-out: MIC): 1 mg/L | MIC (Acinetobacter pittii, isolate NO-Ab145, Acinetobacter pittii, read-out: MIC): 2 mg/L | MIC (Acinetobacter pittii, isolate NO-Ab151, Acinetobacter pittii, read-out: MIC): 2 mg/L | MIC (Acinetobacter pittii, isolate NO-Ab154, Acinetobacter pittii, read-out: MIC): 1 mg/L | MIC (Acinetobacter pittii, isolate NO-Ab157, Acinetobacter pittii, read-out: MIC): 4 mg/L | MIC (Acinetobacter pittii, isolate NO-Ab162, Acinetobacter pittii, read-out: MIC): 8 mg/L | MIC (Acinetobacter pittii, isolate NO-Ab164, Acinetobacter pittii, read-out: MIC): 1 mg/L | MIC (Acinetobacter pittii, isolate NO-Ab178, Acinetobacter pittii, read-out: MIC): 4 mg/L | MIC (Acinetobacter pittii, isolate NO-Ab197, Acinetobacter pittii, read-out: MIC): 2 mg/L | MIC (Acinetobacter proteolyticus, isolate NO-Ab99, Acinetobacter proteolyticus, read-out: MIC): 4 mg/L | MIC (Acinetobacter proteolyticus, isolate NO-Ab102, Acinetobacter proteolyticus, read-out: MIC): 4 mg/L | MIC (Acinetobacter proteolyticus, isolate NO-Ab210, Acinetobacter proteolyticus, read-out: MIC): 1 mg/L | MIC (Acinetobacter radioresistens, isolate NO-Ab175, Acinetobacter radioresistens, read-out: MIC): 0.25 mg/L | MIC (Acinetobacter radioresistens, isolate NO-Ab215, Acinetobacter radioresistens, read-out: MIC): 0.12 mg/L | MIC (Acinetobacter ursingii, isolate NO-Ab3, Acinetobacter ursingii, read-out: MIC): 0.25 mg/L | MIC (Acinetobacter ursingii, isolate NO-Ab64, Acinetobacter ursingii, read-out: MIC): 1 mg/L | MIC (Acinetobacter ursingii, isolate NO-Ab87, Acinetobacter ursingii, read-out: MIC): 0.25 mg/L | MIC (Acinetobacter ursingii, isolate NO-Ab103, Acinetobacter ursingii, read-out: MIC): 2 mg/L | MIC (Acinetobacter ursingii, isolate NO-Ab119, Acinetobacter ursingii, read-out: MIC): 8 mg/L | MIC (Acinetobacter ursingii, isolate NO-Ab120, Acinetobacter ursingii, read-out: MIC): 4 mg/L | MIC (Acinetobacter ursingii, isolate NO-Ab123, Acinetobacter ursingii, read-out: MIC): 2 mg/L | MIC (Acinetobacter ursingii, isolate NO-Ab126, Acinetobacter ursingii, read-out: MIC): 4 mg/L | MIC (Acinetobacter ursingii, isolate NO-Ab147, Acinetobacter ursingii, read-out: MIC): 2 mg/L | MIC (Acinetobacter ursingii, isolate NO-Ab155, Acinetobacter ursingii, read-out: MIC): 4 mg/L | MIC (Acinetobacter ursingii, isolate NO-Ab165, Acinetobacter ursingii, read-out: MIC): 2 mg/L | MIC (Acinetobacter ursingii, isolate NO-Ab166, Acinetobacter ursingii, read-out: MIC): 1 mg/L | MIC (Acinetobacter ursingii, isolate NO-Ab214, Acinetobacter ursingii, read-out: MIC): 4 mg/L | MIC (Acinetobacter ursingii, isolate NO-Ab221, Acinetobacter ursingii, read-out: MIC): 4 mg/L | MIC (Acinetobacter ursingii, isolate NO-Ab222, Acinetobacter ursingii, read-out: MIC): 1 mg/L | MIC (Acinetobacter, isolate NO-Ab146, Acinetobacter iwoffii, read-out: MIC): 2 mg/L | MIC (Acinetobacter, isolate NO-Ab159, Acinetobacter iwoffii, read-out: MIC): 0.5 mg/L | MIC50 [1]: 2 mg/L | MIC90 [1]: 4 mg/L | MIC distribution 0.25 [2]: 4.6 | MIC distribution 0.5 [2]: 12.6 | MIC distribution 1 [2]: 41.4 | MIC distribution 2 [2]: 73.6 | MIC distribution 4 [2]: 96.6 | MIC distribution 8 [2]: 98.9 | MIC distribution 16 [2]: 100 | MIC distribution 32 [2]: 100 | MIC distribution ≤0.06 [2]: 0
